Reference: the supplement of paper PMC10307832

What was measured:
Assay in all cases: relative viability (nuclei count vs DMSO), 5 days (fraction); higher = more cells survive
NCI-H1793 = test system: NCI-H1793
Method in brief: (§1)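 Relative viability is defined as nuclei in treated wells over nuclei in vehicle wells. Duplicate plates were run and medians reported. Lung cancer cell lines in 1536-well plates were dosed by pin tool one day after seeding, with one drug or with a fixed anchor-drug dose plus five library-drug doses (not always all listed) in √10 steps, and nuclei were counted after 5 days.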

NCI-H1915 = test system: NCI-H1915
Method in brief: as §1

LCLC-97TM1 = test system: LCLC-97TM1
Method in brief: as §1

NCI-H441 = test system: NCI-H441
Method in brief: as §1

A-427 = test system: A-427
Method in brief: as §1

NCI-H460 = test system: NCI-H460
Method in brief: as §1

NCI-H322M = test system: NCI-H322M
Method in brief: as §1

NCI-H23 = test system: NCI-H23
Method in brief: as §1

NCI-H1755 = test system: NCI-H1755
Method in brief: as §1

NCI-H1666 = test system: NCI-H1666
Method in brief: as §1

PC-3 [JPC-3] = test system: PC-3 [JPC-3]
Method in brief: as §1

LU99A = test system: LU99A
Method in brief: as §1

NCI-H2126 = test system: NCI-H2126
Method in brief: as §1

LOU-NH91 = test system: LOU-NH91
Method in brief: as §1

LXF-289 = test system: LXF-289
Method in brief: as §1

BEN = test system: BEN
Method in brief: as §1

NCI-H1395 = test system: NCI-H1395
Method in brief: as §1

NCI-H650 = test system: NCI-H650
Method in brief: as §1

NCI-H2170 = test system: NCI-H2170
Method in brief: as §1

HARA = test system: HARA
Method in brief: as §1

NCI-H1944 = test system: NCI-H1944
Method in brief: as §1

O=C(O)CCCCC(CCSCc1ccccc1)SCc1ccccc1 (centres undefined) [CPI-613] + NC(=O)Nc1cc(-c2cccc(F)c2)sc1C(=O)N[C@H]1CCCNC1 [AZD7762] (partner 0.2 µM)
relative viability (NCI-H1793; first compound 5 µM): 0.447
relative viability (NCI-H1793; first compound 15.81 µM): 0.367
relative viability (NCI-H1793; first compound 50 µM): 0.372
relative viability (NCI-H1793; first compound 158.11 µM): 0.11
relative viability (NCI-H1793; first compound 500 µM): 0.0077
relative viability (NCI-H1915; first compound 5 µM): 0.684
relative viability (NCI-H1915; first compound 15.81 µM): 0.639
relative viability (NCI-H1915; first compound 50 µM): 0.627
relative viability (NCI-H1915; first compound 158.11 µM): 0.535
relative viability (NCI-H1915; first compound 500 µM): 0.303
relative viability (LCLC-97TM1; first compound 5 µM): 0.293
relative viability (LCLC-97TM1; first compound 15.81 µM): 0.225
relative viability (LCLC-97TM1; first compound 50 µM): 0.229
relative viability (LCLC-97TM1; first compound 158.11 µM): 0.125
relative viability (LCLC-97TM1; first compound 500 µM): 0.0538
relative viability (NCI-H441; first compound 5 µM): 1.09
relative viability (NCI-H441; first compound 15.81 µM): 0.803
relative viability (NCI-H441; first compound 50 µM): 1.39
relative viability (NCI-H441; first compound 158.11 µM): 0.788
relative viability (NCI-H441; first compound 500 µM): 0.0052
relative viability (A-427; first compound 5 µM): 0.66
relative viability (A-427; first compound 15.81 µM): 0.642
relative viability (A-427; first compound 50 µM): 0.661
relative viability (A-427; first compound 158.11 µM): 0.326
relative viability (A-427; first compound 500 µM): 0.173
relative viability (NCI-H460; first compound 5 µM): 0.633
relative viability (NCI-H460; first compound 15.81 µM): 0.529
relative viability (NCI-H460; first compound 50 µM): 0.613
relative viability (NCI-H460; first compound 158.11 µM): 0.418
relative viability (NCI-H460; first compound 500 µM): 0.291
relative viability (NCI-H322M; first compound 5 µM): 0.547
relative viability (NCI-H322M; first compound 15.81 µM): 0.508
relative viability (NCI-H322M; first compound 50 µM): 0.606
relative viability (NCI-H322M; first compound 158.11 µM): 0.638
relative viability (NCI-H322M; first compound 500 µM): 0.269
relative viability (NCI-H23; first compound 5 µM): 0.212
relative viability (NCI-H23; first compound 15.81 µM): 0.274
relative viability (NCI-H23; first compound 50 µM): 0.218
relative viability (NCI-H23; first compound 158.11 µM): 0.151
relative viability (NCI-H23; first compound 500 µM): 0.0026
relative viability (NCI-H1755; first compound 5 µM): 0.383
relative viability (NCI-H1755; first compound 15.81 µM): 0.4
relative viability (NCI-H1755; first compound 50 µM): 0.319
relative viability (NCI-H1755; first compound 158.11 µM): 0.397
relative viability (NCI-H1755; first compound 500 µM): 0.375
relative viability (NCI-H1666; first compound 5 µM): 0.911
relative viability (NCI-H1666; first compound 15.81 µM): 0.821
relative viability (NCI-H1666; first compound 50 µM): 0.761
relative viability (NCI-H1666; first compound 158.11 µM): 0.376
relative viability (NCI-H1666; first compound 500 µM): 0.553
relative viability (PC-3 [JPC-3]; first compound 5 µM): 0.777
relative viability (PC-3 [JPC-3]; first compound 50 µM): 0.909
relative viability (PC-3 [JPC-3]; first compound 158.11 µM): 0.464
relative viability (PC-3 [JPC-3]; first compound 500 µM): 0.114
relative viability (LU99A; first compound 5 µM): 0.338
relative viability (LU99A; first compound 15.81 µM): 0.326
relative viability (LU99A; first compound 50 µM): 0.322
relative viability (LU99A; first compound 158.11 µM): 0.335
relative viability (LU99A; first compound 500 µM): 0.0775
relative viability (NCI-H2126; first compound 5 µM): 0.935
relative viability (NCI-H2126; first compound 15.81 µM): 0.966
relative viability (NCI-H2126; first compound 50 µM): 0.991
relative viability (NCI-H2126; first compound 158.11 µM): 0.348
relative viability (NCI-H2126; first compound 500 µM): 0.788
relative viability (LOU-NH91; first compound 5 µM): 0.74
relative viability (LOU-NH91; first compound 15.81 µM): 0.7
relative viability (LOU-NH91; first compound 50 µM): 0.753
relative viability (LOU-NH91; first compound 158.11 µM): 0.633
relative viability (LOU-NH91; first compound 500 µM): 0.241
relative viability (LXF-289; first compound 5 µM): 1
relative viability (LXF-289; first compound 15.81 µM): 1
relative viability (LXF-289; first compound 50 µM): 1.03
relative viability (LXF-289; first compound 158.11 µM): 0.722
relative viability (LXF-289; first compound 500 µM): 0.774
relative viability (BEN; first compound 5 µM): 0.653
relative viability (BEN; first compound 15.81 µM): 0.485
relative viability (BEN; first compound 50 µM): 0.697
relative viability (BEN; first compound 158.11 µM): 0.672
relative viability (BEN; first compound 500 µM): 0.526
relative viability (NCI-H1395; first compound 5 µM): 0.42
relative viability (NCI-H1395; first compound 15.81 µM): 0.403
relative viability (NCI-H1395; first compound 50 µM): 0.381
relative viability (NCI-H1395; first compound 158.11 µM): 0.4
relative viability (NCI-H1395; first compound 500 µM): 0.327
relative viability (NCI-H650; first compound 5 µM): 1.01
relative viability (NCI-H650; first compound 15.81 µM): 0.925
relative viability (NCI-H650; first compound 50 µM): 1.03
relative viability (NCI-H650; first compound 158.11 µM): 0.49
relative viability (NCI-H650; first compound 500 µM): 0.655
relative viability (NCI-H2170; first compound 5 µM): 0.878
relative viability (NCI-H2170; first compound 15.81 µM): 0.826
relative viability (NCI-H2170; first compound 50 µM): 0.865
relative viability (NCI-H2170; first compound 158.11 µM): 0.607
relative viability (NCI-H2170; first compound 500 µM): 0.231
relative viability (HARA; first compound 5 µM): 0.37
relative viability (HARA; first compound 15.81 µM): 0.0178
relative viability (HARA; first compound 50 µM): 0.302
relative viability (HARA; first compound 158.11 µM): 0.204
relative viability (HARA; first compound 500 µM): 0.041
relative viability (NCI-H1944; first compound 5 µM): 0.511
relative viability (NCI-H1944; first compound 15.81 µM): 0.487
relative viability (NCI-H1944; first compound 50 µM): 0.473
relative viability (NCI-H1944; first compound 158.11 µM): 0.307
relative viability (NCI-H1944; first compound 500 µM): 0.345
